In patent publication US20210403415A1, “COMPOUNDS AND METHODS TO ATTENUATE TUMOR PROGRESSION AND METASTASIS” (THE TRUSTEES OF INDIANA UNIVERSITY, priority 2018, published 2021):
Where two headings read alike, the source gives them in different places.

Experiments:
TEAD4.Yap1 interaction [1] = target: T1, TEAD4.Yap1 interaction (Homo sapiens, UniProt Q15561); assay: Fluorescence polarization, GST-TEAD4 with FAM-Yap60-99 peptide; format: binding; design: TEAD4 (217-434), TEAD4 (217-434) Cys367Ser mutant and Yap1 (Full-length) were expressed as GST-fusion proteins; made in house; host or cells: E. coli BL-21 (DE3), pGEX-6P-1; conditions: for inhibition / maximum inhibition of TEAD4.Yap1 interaction: 24 h incubation at 4° C.; for t1/2^∞ (half-life of inactivation): corresponding to kinact
T1 sequence (Q15561 217-434): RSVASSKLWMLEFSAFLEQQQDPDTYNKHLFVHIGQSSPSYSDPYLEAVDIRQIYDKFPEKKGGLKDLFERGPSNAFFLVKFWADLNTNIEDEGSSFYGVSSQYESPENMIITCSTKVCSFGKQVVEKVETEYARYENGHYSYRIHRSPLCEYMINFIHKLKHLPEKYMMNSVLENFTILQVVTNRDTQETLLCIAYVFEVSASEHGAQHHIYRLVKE
Description: GST-TEAD4, GST-TEAD4 Cys367Ser mutant or HIS-TEAD2 interaction with Yap1 was investigated using a fluorescently-labeled peptide (FAM-Yap60-99), consisting of FAM-labeled TEAD-binding peptide fragment of Yap1 (FAM-[…] TVPMCLRKLPASFCKPP), which has a disulfide bridge (American Peptide, Sunnyvale, Calif.). Addition of FAM-Yap60-99 to the TEAD was followed by measurement of changes in polarization. 40 μL of 125 nM GST-TEAD4 WT or GST-TEAD4 Cys367Ser in assay buffer (PBS with 0.01% v/v Triton-X100) or 40 μL of 64 nM HIS-TEAD2 was added to a 384-well black polystyrene plate (Cat. No. 262260; Nunc, Roskilde, Denmark) and incubated with 5 μL of […] serially diluted compounds in assay buffer supplemented with 20% v/v DMSO for 24 h at 4° C. Finally, 5 μL of 160 nM FAM-Yap60-99 peptide was added, the plate centrifuged, and the polarization was measured on an Envision Multilabel Plate Reader (PerkinElmer, Waltham, Mass.) using a filter set with excitation and emission wavelengths of 485 and 535 nm, respectively. Percent inhibition was calculated as relative to a minimum inhibition control, which is without compound, and a maximum inhibition control, which is without a TEAD.
For the determination of the inhibition efficiency kinact/K1, the protein compound incubation time was varied between […], prior to the addition of the FAM-Yap60-99 peptide and fluorescence polarization measurements. The progressive decrease in TEAD activities were plotted against time for all 10 concentrations ([…]) of the compounds and the observed rate of inhibition (kobs) was calculated by fitting a simple exponential function.
The observed rate of inhibition was then plotted against the concentration of the compound and a […] function kobs=kinact[Inhibitor]/K1+[Inhibitor] was fitted to determine the kinact and K1 values.

TEAD4 = TEAD4 (Homo sapiens, UniProt Q15561); assay: Covalent streptavidin pull down of myc-TEAD4 from HEK293 cell lysates; format: cell-based; design: expressed in transfected cells; host or cells: HEK293; conditions: higher concentrations, with compound 9
TEAD4, sequence (Q15561 whole entry): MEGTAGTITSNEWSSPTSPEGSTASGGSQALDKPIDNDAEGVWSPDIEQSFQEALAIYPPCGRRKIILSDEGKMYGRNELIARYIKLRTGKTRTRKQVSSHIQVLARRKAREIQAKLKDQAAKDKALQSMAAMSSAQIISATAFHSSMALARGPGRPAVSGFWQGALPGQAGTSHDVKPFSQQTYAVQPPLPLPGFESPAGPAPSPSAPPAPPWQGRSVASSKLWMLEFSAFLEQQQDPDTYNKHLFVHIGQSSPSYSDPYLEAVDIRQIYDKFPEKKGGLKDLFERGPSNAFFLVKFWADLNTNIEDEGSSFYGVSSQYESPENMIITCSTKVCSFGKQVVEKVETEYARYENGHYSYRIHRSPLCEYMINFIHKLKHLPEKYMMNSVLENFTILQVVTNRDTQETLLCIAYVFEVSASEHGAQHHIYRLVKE
Description: HEK293 cells transfected with the myc-TEAD4 construct were grown for 48 h and then treated with DMSO or with 25 μM of compound 2 for an additional 48 h. Cells were then harvested in lysis buffer (50 mM Tris-HCl, pH 7.3, 150 mM NaCl, 0.5 mM EDTA, 1% Triton X-100, PhosSTOP phosphatase inhibitor cocktail, and EDTA-free protease inhibitors cocktail). Cell lysates containing 2 mg of protein were incubated with the indicated compounds or DMSO for 24 h. Extracts were then incubated with Dynabeads M-280 Streptavidin (Sigma-Aldrich) for 2 h at 4° C. Dynabeads were then washed and bound proteins were denatured and eluted according to the manufacturer's instructions. Relative levels of myc-TEAD4 from each complex were measured by immunoblot analysis with the anti-c-Myc antibody (1:5,000, Sigma-Aldrich).

TEAD4.Yap1 interaction [2] = target: T1, TEAD4.Yap1 interaction; assay: Fluorescence polarization, GST-TEAD4 with FAM-Yap60-99 peptide; format: binding; design: TEAD4 (217-434), TEAD4 (217-434) Cys367Ser mutant and Yap1 (Full-length) were expressed as GST-fusion proteins; made in house; host or cells: E. coli BL-21 (DE3), pGEX-6P-1; conditions: 0.5, 6, 24, 48 h incubation at 4° C., 0.1-100 μM
human astrocytes = assay: MTS viability of normal astrocytes; format: cell-based; conditions: 10 μM, 72 h
Description: Hippo signaling promotes tumor growth and invasion in a range of cancers including GBM. We investigated the effects of compounds 1, 2, and 5 on GBM cell viability using patient-derived GBM43 cells that were grown as three-dimensional spheroids (FIG. 8A). […] The potency of compounds 2 and 6 were compared to temozolomide, which is the standard of care for patients with glioblastoma. […] FIG. 11 illustrates the following: human astrocytes cells were plated 24 h before treatment in collagen I coated 96-well plates in Dulbecco's modified Eagle's medium, supplemented with 20 μg/mL insulin, 5 μg/mL N-acetylcysteine, 10% fetal bovine serum, 10 μM hydrocortisone and antibiotics; then treated with DMSO or TED-347 at indicated concentrations for 72 h at 37° C. and 5% CO2 in a humidified incubator. Stock MTS (Promega) solution (20 μL per 100 μL medium) was added to all wells of an assay, and plates were incubated at 37° C. for 4 h, and read on a BioTek Synergy 2 reader, using a test wavelength of 490 nm; mean±s.d.; n=2 replicates.

CTGF transcript levels = assay: qRT-PCR of CTGF transcript in HEK293 cells; format: cell-based; conditions: HEK293, 48 h
Description: HEK293 cells co-transfected the Flag-YAP and myc-TEAD4 constructs were incubated with DMSO or the indicated amount of compounds for 48 h. Total RNA was purified using the RNeasy plus mini kit (QIAGEN, Hilden, Germany) according to the manufacturer's instructions. Complementary DNA was synthesized from 500 ng total RNA with Oligo-dT primers and the Multi-Scribe reverse transcriptase (Fisher, Waltham, Mass.) according to the manufacturer's instructions.
Real-time PCR reactions utilized 100 ng cDNA, 200 nM gene specific primers and the Sensifast No-ROX mix (Bioline, Taunton, Mass.) in a total volume of 20 μl. All measurements were carried out in triplicate using an Eppendorf Mastercycler® RealPlex2. The sequences of primers for CTGF were forward, 5′-TTGGCCCAGACCCAACTA-3 (SEQ ID NO: 1); and reverse, 5′-GCAGGAGGCGTTGTCATT-3′ (SEQ ID. NO: 2). The primer sequences for (3-actin were forward, 5′-TTGGCAATGAGCGGTTCC-3 (SEQ ID NO: 3); and reverse, 5′-[…]-3′ (SEQ ID NO: 4).

| Compound | reversibility of inhibition after dialysis (TEAD4.Yap1 interaction [1]; 50 μM, 24 h at 4° C., then dialyzed against buffer 24 h at 4° C.) | inhibition / maximum inhibition of TEAD4.Yap1 interaction (TEAD4.Yap1 interaction [1]) [%] | maximum inhibition of TEAD4 (TEAD4.Yap1 interaction [1]; 48 h incubation at 4° C.) [%] | t1/2^∞ (half-life of inactivation) (TEAD4.Yap1 interaction [1]) [h] | competition with compound 9 for binding to TEAD4 (TEAD4) | kinact (TEAD4.Yap1 interaction [2]; read-out: maximum rate of inactivation (kinact) (converted)) [s⁻¹] | effect on cell viability of non-transformed normal astrocytes (human astrocytes) | CTGF transcript levels versus control cells (CTGF transcript levels) | kinact (TEAD4.Yap1 interaction [2]; read-out: rate of inactivation kinact (converted)) [s⁻¹] |
| --- | --- | --- | --- | --- | --- | --- | --- | --- | --- |
| O=C(CCl)c1ccccc1Nc1cccc(C(F)(F)F)c1 [Compound 2, 2-chloro-1-(2-((3-(trifluoromethyl)phenyl)amino)phenyl)ethanone] | irreversible inhibitor | 53 | 80 | 18.2 | compete with compound 9 for binding to TEAD4 | 1.06e-05 | did not show any effect | significant reduction | – |
| O=C(CCl)c1ncccc1Nc1cccc(C(F)(F)F)c1 [Compound 5, 2-chloro-1-(3-((3-(trifluoromethyl)phenyl)amino)pyridin-2-yl)ethanone] | – | 81 | – | 14.3 | compete with compound 9 for binding to TEAD4 | – | – | significant reduction | 1.36e-05 |
